# Laboratory results from patent US12479838B2, “D3 receptor agonist compounds; methods of preparation; intermediates thereof; and methods of use thereof” (THE UNITED STATES OF AMERICA, AS REPRESENTED BY THE …, priority 2019, dated 2025).
# Like-named read-outs stand apart in the source and are kept apart here.
# Legend:
# human D3R = human D3R (Homo sapiens (Human), UniProt P35462); assay: Radioligand competition binding vs. [3H]-(R)-(+)-7-OH-DPAT, hD3R; settings: for D2R/D3R: D3R selectivity over D2R
# human D3R, sequence (P35462 whole entry): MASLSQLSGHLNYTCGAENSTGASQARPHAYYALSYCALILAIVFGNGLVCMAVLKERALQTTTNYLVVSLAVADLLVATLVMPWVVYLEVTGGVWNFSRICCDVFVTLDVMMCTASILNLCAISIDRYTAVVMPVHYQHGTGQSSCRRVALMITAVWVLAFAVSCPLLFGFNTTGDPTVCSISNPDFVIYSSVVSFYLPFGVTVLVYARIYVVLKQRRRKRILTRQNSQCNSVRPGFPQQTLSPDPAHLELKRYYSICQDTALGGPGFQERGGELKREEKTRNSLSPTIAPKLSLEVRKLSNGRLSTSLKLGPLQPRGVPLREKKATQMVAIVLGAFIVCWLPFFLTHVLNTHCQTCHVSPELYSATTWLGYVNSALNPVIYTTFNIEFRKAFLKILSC
# human D2LR = human D2LR (Homo sapiens (Human), UniProt P14416); assay: Radioligand competition binding vs. [3H]-(R)-(+)-7-OH-DPAT, hD2R
# human D2LR, sequence (P14416 whole entry): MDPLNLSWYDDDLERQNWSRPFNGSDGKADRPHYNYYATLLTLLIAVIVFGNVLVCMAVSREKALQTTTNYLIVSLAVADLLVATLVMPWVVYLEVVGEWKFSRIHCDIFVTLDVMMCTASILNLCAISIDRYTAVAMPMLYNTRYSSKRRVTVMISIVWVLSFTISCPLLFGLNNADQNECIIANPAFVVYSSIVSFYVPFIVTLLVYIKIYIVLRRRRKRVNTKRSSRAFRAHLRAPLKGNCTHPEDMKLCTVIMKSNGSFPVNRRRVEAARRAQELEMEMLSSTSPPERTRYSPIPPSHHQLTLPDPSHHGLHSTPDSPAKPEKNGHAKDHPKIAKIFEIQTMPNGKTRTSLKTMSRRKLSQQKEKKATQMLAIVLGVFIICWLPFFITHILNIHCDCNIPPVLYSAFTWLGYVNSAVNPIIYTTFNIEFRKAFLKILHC
# human D4.4 = human D4.4 (Homo sapiens (Human), UniProt P21917); assay: Radioligand competition binding vs. [3H]-(R)-(+)-7-OH-DPAT, hD4R; settings: HEK293 cells stably expressing hD4R, read-out: D4R Ki ± SEM
# human D4.4, sequence (P21917 whole entry): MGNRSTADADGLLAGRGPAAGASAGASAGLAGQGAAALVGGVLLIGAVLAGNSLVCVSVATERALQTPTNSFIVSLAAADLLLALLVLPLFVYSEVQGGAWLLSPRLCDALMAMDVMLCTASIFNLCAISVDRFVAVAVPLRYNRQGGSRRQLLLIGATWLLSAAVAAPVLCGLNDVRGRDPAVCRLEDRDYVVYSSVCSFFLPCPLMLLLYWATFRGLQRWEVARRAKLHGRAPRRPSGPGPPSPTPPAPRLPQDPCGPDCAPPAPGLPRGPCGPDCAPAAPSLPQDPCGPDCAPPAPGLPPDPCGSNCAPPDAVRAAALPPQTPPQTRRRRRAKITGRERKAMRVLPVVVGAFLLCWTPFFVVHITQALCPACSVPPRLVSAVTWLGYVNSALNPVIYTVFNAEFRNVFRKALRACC
# [1] = ratio of Ki, vs. [3H]-(R)-(+)-7-OH-DPAT
# [2] = vs. [3H]-(R)-(+)-7-OH-DPAT, HEK293 cells stably expressing hD3R, read-out: D3R Ki ± SEM
# [3] = vs. [3H]-(R)-(+)-7-OH-DPAT, HEK293 cells stably expressing hD2R, read-out: D2R Ki ± SEM
compound,measurement,setting,value
"CCCN1CCO[C@@H]2c3cc(OCCCCNC(=O)c4ccc5c(c4)Cc4ccccc4-5)ccc3OC[C@H]21 [SLC01-24, N-(4-(((4aR,10bR)-4-propyl-3,4,4a,10b-tetrahydro-2H,5H-chromeno[4,3-b][1,4]oxazin-9-yl)oxy)butyl)-9H-fluorene-2-carboxamide]",D2R/D3R,human D3R; [1],8.33
same,Ki,human D3R; [2],806 ± 185 nM
same,Ki,human D2LR; [3],6710 nM
"C[C@H]1CO[C@H](c2ccc(N)nc2)CN1CC1CC1CNC(=O)c1cc2ccccc2[nH]1 (stereo partly drawn) [cis-FOB01-60B, cis-N-((2-(((2R,5S)-2-(6-aminopyridin-3-yl)-5-methylmorpholino)methyl)cyclopropyl)methyl)-1H-indole-2-carboxamide]",D2R/D3R,human D3R; [1],0.235
same,Ki,human D3R; [2],32900 nM
same,Ki,human D2LR; [3],7730 nM
"C[C@H]1CO[C@@H](c2ccc(N)nc2)CN1C/C=C/COc1ccc2c(c1)NC(=O)CC2 [FOB01-44, 7-(((E)-4-((2S,5S)-2-(6-aminopyridin-3-yl)-5-methylmorpholino)but-2-en-1-yl)oxy)-3,4-dihydroquinolin-2(1H)-one]",D2R/D3R,human D3R; [1],0.297
same,Ki,human D3R; [2],1150 nM
same,Ki,human D2LR; [3],341 ± 27.6 nM
"CCCN1CCO[C@@H]2c3cc(OCCCCOc4ccc5c(c4)NC(=O)CC5)ccc3OC[C@H]21 [AB04-38, 7-(4-(((4aR,10bR)-4-propyl-3,4,4a,10b-tetrahydro-2H,5H-chromeno[4,3-b][1,4]oxazin-9-yl)oxy)butoxy)-3,4-dihydroquinolin-2(1H)-one]",D2R/D3R,human D3R; [1],6.35
same,Ki,human D3R; [2],1590 nM
same,Ki,human D2LR; [3],10100 nM
"C[C@H]1CO[C@@H](c2ccc(N)nc2)CN1 [AB04-85B, 5-((2S,5S)-5-methylmorpholin-2-yl)pyridin-2-amine]",D2R/D3R,human D3R; [1],5.52
same,Ki,human D3R; [2],424 ± 32.4 nM
same,Ki,human D2LR; [3],2340 nM
"C[C@H]1COC(c2ccc(N)nc2)CN1CCCCOc1ccc2c(c1)NC(=O)CC2 (stereo partly drawn) [AB04-35, 7-(4-((5S)-2-(6-aminopyridin-3-yl)-5-methylmorpholino)butoxy)-3,4-dihydroquinolin-2(1H)-one]",D4R/D3R,human D3R; [1],18.6
same,D2R/D3R,human D3R; [1],0.653
same,Ki,human D3R; [2],173 ± 48.2 nM
same,Ki,human D2LR; [3],113 ± 22.7 nM
same,Ki,human D4.4,3220 nM
"C[C@H]1CO[C@@H](c2ccc(N)nc2)CN1CC1CC1CNC(=O)c1cc2ccccc2[nH]1 (stereo partly drawn) [cis-FOB01-59B, cis-N-((2-(((2S,5S)-2-(6-aminopyridin-3-yl)-5-methylmorpholino)methyl)cyclopropyl)methyl)-1H-indole-2-carboxamide]",D2R/D3R,human D3R; [1],0.435
same,Ki,human D3R; [2],276 ± 30 nM
same,Ki,human D2LR; [3],120 ± 16.6 nM
"CCCN1CCO[C@@H]2c3cc(O)ccc3OC[C@@H]21 (racemic) [(±)-cis-2, reference compound]",Ki,human D3R,> 10000 nM
same,Ki,human D2LR,> 10000 nM
"C[C@H]1CO[C@H](c2ccc(N)nc2)CN1C/C=C/COc1ccc2c(c1)NC(=O)CC2 [FOB01-42, 7-(((E)-4-((2R,5S)-2-(6-aminopyridin-3-yl)-5-methylmorpholino)but-2-en-1-yl)oxy)-3,4-dihydroquinolin-2(1H)-one]",D2R/D3R,human D3R; [1],0.289
same,Ki,human D3R; [2],73000 nM
same,Ki,human D2LR; [3],21100 nM
"C[C@H]1CO[C@H](c2ccc(N)nc2)CN1CCCCOc1ccc2c(c1)NC(=O)CC2 [AB04-95, 7-(4-((2R,5S)-2-(6-aminopyridin-3-yl)-5-methylmorpholino)butoxy)-3,4-dihydroquinolin-2(1H)-one]",D2R/D3R,human D3R; [1],0.110
same,Ki,human D3R; [2],24200 nM
same,Ki,human D2LR; [3],2660 nM
"C[C@H]1CO[C@H](c2ccc(N)nc2)CN1CC1CC1CNC(=O)c1cc2ccccc2[nH]1 (stereo partly drawn) [cis-FOB01-60A, cis-N-((2-(((2R,5S)-2-(6-aminopyridin-3-yl)-5-methylmorpholino)methyl)cyclopropyl)methyl)-1H-indole-2-carboxamide]",D2R/D3R,human D3R; [1],0.431
same,Ki,human D3R; [2],26200 nM
same,Ki,human D2LR; [3],11300 nM
"C[C@H]1CO[C@@H](c2ccc(N)nc2)CN1CC1CC1CNC(=O)c1cc2ccccc2[nH]1 (stereo partly drawn) [trans-AB05-27B, trans-N-((2-(((2S,5S)-2-(6-aminopyridin-3-yl)-5-methylmorpholino)methyl)cyclopropyl)methyl)-1H-indole-2-carboxamide]",D2R/D3R,human D3R; [1],1.75
same,Ki,"human D3R; vs. [3H]-(R)-(+)-7-OH-DPAT, HEK293 cells stably expressing hD3R, listed as AB05-27B, read-out: D3R Ki ± SEM",404 nM
same,Ki,human D3R; [2],404 ± 34 nM
same,Ki,human D2LR; [3],707 ± 19.8 nM
"O=C1CCc2ccc(OCCCCN3CCO[C@@H]4c5cc(O)ccc5OC[C@H]43)cc2N1 [SLC02-11, 7-(4-((4aR,10bR)-9-hydroxy-2,3,4a,10b-tetrahydro-4H,5H-chromeno[4,3-b][1,4]oxazin-4-yl)butoxy)-3,4-dihydroquinolin-2(1H)-one]",D2R/D3R,human D3R; [1],0.554
same,Ki,human D3R; [2],11300 nM
same,Ki,human D2LR; [3],6260 nM
"CCCN1CCO[C@@H]2c3cc(OCCCCNC(=O)c4cc5cccnc5[nH]4)ccc3OC[C@H]21 [AB04-42, N-(4-(((4aR,10bR)-4-propyl-3,4,4a,10b-tetrahydro-2H,5H-chromeno[4,3-b][1,4]oxazin-9-yl)oxy)butyl)-1H-pyrrolo[2,3-b]pyridine-2-carboxamide]",D2R/D3R,human D3R; [1],3.12
same,Ki,human D3R; [2],8660 nM
same,Ki,human D2LR; [3],27000 nM
"CCCN1CCO[C@@H]2c3cc(OCCCCNC(=O)c4cc5ccccc5[nH]4)ccc3OC[C@H]21 [SLC01-25, N-(4-(((4aR,10bR)-4-propyl-3,4,4a,10b-tetrahydro-2H,5H-chromeno[4,3-b][1,4]oxazin-9-yl)oxy)butyl)-1H-indole-2-carboxamide]",D2R/D3R,human D3R; [1],6.30
same,Ki,human D3R; [2],613 ± 50.6 nM
same,Ki,human D2LR; [3],3860 nM
"Oc1ccc2c(c1)[C@H]1OCCN[C@@H]1CO2 [AB04-75, (4aR,10bR)-3,4,4a,10b-tetrahydro-2H,5H-chromeno[4,3-b][1,4]oxazin-9-ol, reference compound]",D2R/D3R,human D3R; [1],10.5
same,Ki,human D3R; [2],403 ± 5.55 nM
same,Ki,human D2LR; [3],4250 nM
"O=C(NCCCCNC1COc2ccc(O)cc2C1=O)c1cc2ccccc2[nH]1 (single isomer, unassigned) [SLC02-16A, N-(4-((6-hydroxy-4-oxochroman-3-yl)amino)butyl)-1H-indole-2-carboxamide]",D2R/D3R,human D3R; [1],0.710
same,Ki,human D3R; [2],354 ± 45.1 nM
same,Ki,human D2LR; [3],245 ± 32 nM
"C[C@H]1CO[C@@H](c2ccc(N)nc2)CN1CCCCOc1ccc2c(c1)NC(=O)CC2 [AB04-96, 7-(4-((2S,5S)-2-(6-aminopyridin-3-yl)-5-methylmorpholino)butoxy)-3,4-dihydroquinolin-2(1H)-one]",D2R/D3R,human D3R; [1],1.11
same,"D3R affinity, fold better than its (2R,5S) diastereoisomer",human D3R; vs. [3H]-(R)-(+)-7-OH-DPAT,775 fold
same,Ki,human D3R; [2],31.2 ± 8.72 nM
same,Ki,human D2LR; [3],34.6 ± 4.86 nM
"O=C(NCCCCNC1COc2ccc(O)cc2C1=O)c1cc2ccccc2[nH]1 (single isomer, unassigned) [SLC02-16B, N-(4-((6-hydroxy-4-oxochroman-3-yl)amino)butyl)-1H-indole-2-carboxamide]",D2R/D3R,human D3R; [1],0.808
same,Ki,human D3R; [2],1770 nM
same,Ki,human D2LR; [3],1430 nM
"C[C@H]1CO[C@@H](c2ccc(N)nc2)CN1CC1CC1CNC(=O)c1cc2ccccc2[nH]1 (stereo partly drawn) [cis-FOB01-59A, cis-N-((2-(((2S,5S)-2-(6-aminopyridin-3-yl)-5-methylmorpholino)methyl)cyclopropyl)methyl)-1H-indole-2-carboxamide]",D2R/D3R,human D3R; [1],0.498
same,Ki,human D3R; [2],2150 nM
same,Ki,human D2LR; [3],1070 nM
"C[C@H]1CO[C@H](c2ccc(N)nc2)CN1CC1CC1CNC(=O)c1cc2ccccc2[nH]1 (mixture of isomers) [rac-trans-AB05-26, trans-N-((2-(((2R,5S)-2-(6-aminopyridin-3-yl)-5-methylmorpholino)methyl)cyclopropyl)methyl)-1H-indole-2-carboxamide]",D2R/D3R,human D3R; [1],0.213
same,Ki,human D3R; [2],66200 nM
same,Ki,human D2LR; [3],14100 nM
"CCCN1CCO[C@@H]2c3cc(OCCCCNC(=O)c4ccc5scnc5c4)ccc3OC[C@H]21 [AB04-41, N-(4-(((4aR,10bR)-4-propyl-3,4,4a,10b-tetrahydro-2H,5H-chromeno[4,3-b][1,4]oxazin-9-yl)oxy)butyl)benzo[d]thiazole-5-carboxamide]",D2R/D3R,human D3R; [1],4.30
same,Ki,human D3R; [2],2130 nM
same,Ki,human D2LR; [3],9160 nM
CCCN1CCO[C@@H]2c3cc(OCCCCN4C(=O)c5ccccc5C4=O)ccc3OC[C@H]21 [AB02-119],D2R/D3R,human D3R; [1],2.11
same,Ki,human D3R; [2],1190 nM
same,Ki,human D2LR; [3],2510 nM
"C[C@H]1CO[C@@H](c2ccc(N)nc2)CN1CC1CC1CNC(=O)c1cc2ccccc2[nH]1 (stereo partly drawn) [trans-AB05-27A, trans-N-((2-(((2S,5S)-2-(6-aminopyridin-3-yl)-5-methylmorpholino)methyl)cyclopropyl)methyl)-1H-indole-2-carboxamide]",D2R/D3R,human D3R; [1],0.182
same,Ki,human D3R; [2],1190 nM
same,Ki,"human D2LR; vs. [3H]-(R)-(+)-7-OH-DPAT, HEK293 cells stably expressing hD2R, listed as AB05-27A, read-out: D2R Ki ± SEM",216 nM
same,Ki,human D2LR; [3],216 ± 32.6 nM
"CCCN1CCO[C@@H]2c3cc(OCCCCNC(=O)c4nc5ccccc5s4)ccc3OC[C@H]21 [SLC01-35, N-(4-(((4aR,10bR)-4-propyl-3,4,4a,10b-tetrahydro-2H,5H-chromeno[4,3-b][1,4]oxazin-9-yl)oxy)butyl)benzo[d]thiazole-2-carboxamide]",D2R/D3R,human D3R; [1],4.14
same,Ki,human D3R; [2],1330 nM
same,Ki,human D2LR; [3],5510 nM
"CCCN1CCO[C@@H]2c3cc(OCCCCNC(=O)c4cc5ccccc5o4)ccc3OC[C@H]21 [SLC01-26, N-(4-(((4aR,10bR)-4-propyl-3,4,4a,10b-tetrahydro-2H,5H-chromeno[4,3-b][1,4]oxazin-9-yl)oxy)butyl)benzofuran-2-carboxamide]",D2R/D3R,human D3R; [1],1.57
same,Ki,human D3R; [2],6010 nM
same,Ki,human D2LR; [3],9450 nM
"C[C@H]1CO[C@H](c2ccc(N)nc2)CN1 [AB04-85A, 5-((2R,5S)-5-methylmorpholin-2-yl)pyridin-2-amine]",D2R/D3R,human D3R; [1],4.67
same,Ki,human D3R; [2],1520 nM
same,Ki,human D2LR; [3],7100 nM
CCCN(CCC)c1ccc(C2CN(CCC)C(C)CO2)cn1 (stereo not drawn) [AB03-14],Ki,human D3R; [2],> 10000 nM
same,Ki,human D2LR; [3],> 5000 nM
